Here are results for two molecules from patent US20120277299A1, “METHOD FOR MODULATING ION TRANSPORTER” (SUCAMPO AG, priority 2011, published 2012).

The assay has as its system Na^+/K^+/Cl^− cotransporter. The assay is described as follows: 86Rb uptake assay for Na+/K+/Cl− cotransporter activity in A7r5 cells. The format is cell-based, Rat. As to conditions: for effect on 86Rb uptake (activation of Na+/K+/Cl− cotransporter): 0.01 μM to 10 μM; for % control activity: 86Rb uptake, 10 min at 37° C. As for the experimental part:
The effect of Compound 1 ((−)-7-[(2R,4aR,5R,7aR)-2-(1,1-difluoropentyl)-2-hydroxy-6-oxooctahydrocyclopenta[b]pyran-5-yl]heptanoic acid) and Compound 2 ((−)-7-{(2R,4aR,5R,7aR)-2-[(3S)-1,1-difluoro-3-methylpentyl]-2-hydroxy-6-oxooctahydrocyclopenta[b]pyran-5-yl}heptanoic acid) on […] cotransporter were assessed by ^86Rb uptake. Rat aorta-derived smooth muscle cells (A7r5) cells were cultured to sub-confluent on culture dishes and used for the assay. The culture medium was removed and replaced by uptake medium that contains labeled isotope (47 μM ^86Rb) and each compound.
After 10 min incubation at 37° C., uptake medium was removed and extracellular radioactivity was washed using 0.1M […] solution. The cells were harvested in 0.1M NaOH and the radioactivity incorporated by the cells was determined. Compound1 and 2 were tested at concentrations ranging from 0.01 μM to 10 μM and each determination was made in duplicate.

Turning to `CC[C@H](C)CC(F)(F)[C@@]1(O)CC[C@H]2[C@@H](CC(=O)[C@@H]2CCCCCCC(=O)O)O1` [Compound 2, (−)-7-{(2R,4aR,5R,7aR)-2-[(3S)-1,1-difluoro-3-methylpentyl]-2-hydroxy-6-oxooctahydrocyclopenta[b]pyran-5-yl}heptanoic acid], the “effect on 86Rb uptake (activation of Na+/K+/Cl− cotransporter)” value is “increased ^86Rb uptake concentration-dependently”. The “% control activity” value (compound 0.01 μM) was found to be 108.1%. The “% control activity” value (compound 0.03 μM) was found to be 143.0%. Also, the “% control activity” value (compound 0.1 μM) came out at 157.4%. The “% control activity” value (compound 0.3 μM) is 171.3%. Also, the “% control activity” value (compound 1 μM) was 168.5%. The “% control activity” value (compound 3 μM) is 213.6%. In addition, the “% control activity” value (compound 10 μM) was 205.1%.

Regarding `CCCCC(F)(F)[C@@]1(O)CC[C@H]2[C@@H](CC(=O)[C@@H]2CCCCCCC(=O)O)O1` [Compound 1, (−)-7-[(2R,4aR,5R,7aR)-2-(1,1-difluoropentyl)-2-hydroxy-6-oxooctahydrocyclopenta[b]pyran-5-yl]heptanoic acid], the “effect on 86Rb uptake (activation of Na+/K+/Cl− cotransporter)” value is “increased ^86Rb uptake concentration-dependently”. The “% control activity” value (compound 0.01 μM) was 82.7%. Also, the “% control activity” value (compound 0.03 μM) amounted to 115.7%. Also, the “% control activity” value (compound 0.1 μM) turned out to be 122.6%. Besides, where the note is “compound 0.3 μM”, the “% control activity” value turned out to be 133.2%. Besides, the “% control activity” value (compound 1 μM) is recorded as 134.2%. Moreover, the “% control activity” value (compound 3 μM) turned out to be 152.3%. For the same molecule, the “% control activity” value (compound 10 μM) came out at 175.5%.
